Measurements taken from patent publication US9567345B2, “Pharmaceutically active pyrazolo-triazine derivatives” (LEAD DISCOVERY CENTER GMBH, priority 2012, dated 2017).
Read-outs that look alike come from different tables or passages of the source.

Tests used:
Type in all cases: biochemical
CDK2/CycA = target: T1, CDK2/CycA (Homo sapiens, UniProt P24941); test: CDK2 Enzymatic Activity Assay (Lance Kinase Activity Assay, FRET); details: for IC50: Table 5B, class symbols per IC50 [nM] ranges of b581, read-out: CDK2: Selectivity of CDK7 inhibition over CDK2 inhibition
T1 construct: purchased Proqinase
In short: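 LANCE TR-FRET assay: CDK2/CycA phosphorylated ULight-MBP peptide in HEPES 50 mM pH 7.5 buffer with MgCl2, EGTA, DTT and Tween-20 for 1 h at room temperature. Eu-anti-phospho-MBP antibody with EDTA was then added for 1 h before reading. IC50 was fitted from 8-point, 1:3 sigmoidal dose-response curves.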

CDK7/CycH/Mat1 = CDK7/CycH/Mat1 (Homo sapiens, UniProt P50613); test: CDK7 Enzymatic Activity Assay (Lance Kinase Activity Assay, FRET)
Chain of CDK7/CycH/Mat1 (P50613 whole entry): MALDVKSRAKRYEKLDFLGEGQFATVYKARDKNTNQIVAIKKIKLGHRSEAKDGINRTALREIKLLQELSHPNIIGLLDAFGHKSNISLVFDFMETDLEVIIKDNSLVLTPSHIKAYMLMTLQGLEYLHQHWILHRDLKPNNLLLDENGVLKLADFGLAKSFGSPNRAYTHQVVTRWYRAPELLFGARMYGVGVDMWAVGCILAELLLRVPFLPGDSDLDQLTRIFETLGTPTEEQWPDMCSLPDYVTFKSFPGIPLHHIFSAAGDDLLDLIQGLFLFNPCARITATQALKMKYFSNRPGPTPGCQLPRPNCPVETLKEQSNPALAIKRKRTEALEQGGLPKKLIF
In short: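 Ulight-MBP peptide phosphorylation by CDK7/CycH/Mat1 in HEPES 50 mM pH 7.5, MgCl2, EGTA, DTT, Tween-20; 1 h at room temperature, then EDTA stop with Eu-anti-phospho-MBP antibody for 1 h and TR-FRET read. Compounds in 8-point 1:3 DMSO series; IC50 from sigmoidal dose-response fit.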

CDK9/Cyclin T1 = CDK9/Cyclin T1 (Homo sapiens, UniProt P50750); test: CDK9 Enzymatic Activity Assay (Lance Kinase Activity Assay, FRET); details: for IC50: Table 5B, class symbols per IC50 [nM] ranges of b581, read-out: CDK9: Selectivity of CDK7 inhibition over CDK9 inhibition
Chain of CDK9/Cyclin T1 (P50750 whole entry): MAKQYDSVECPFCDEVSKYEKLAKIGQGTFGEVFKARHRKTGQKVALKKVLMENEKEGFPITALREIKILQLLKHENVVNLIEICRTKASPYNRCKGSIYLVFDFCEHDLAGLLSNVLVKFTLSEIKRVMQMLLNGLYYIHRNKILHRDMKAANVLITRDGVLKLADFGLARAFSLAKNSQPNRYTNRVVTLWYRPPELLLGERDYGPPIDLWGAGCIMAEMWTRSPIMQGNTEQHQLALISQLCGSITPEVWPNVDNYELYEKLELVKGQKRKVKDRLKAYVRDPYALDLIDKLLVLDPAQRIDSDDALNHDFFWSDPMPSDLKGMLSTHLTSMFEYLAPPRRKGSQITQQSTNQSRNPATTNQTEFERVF
Chain of CDK9/Cyclin T1 (O60563 whole entry partner): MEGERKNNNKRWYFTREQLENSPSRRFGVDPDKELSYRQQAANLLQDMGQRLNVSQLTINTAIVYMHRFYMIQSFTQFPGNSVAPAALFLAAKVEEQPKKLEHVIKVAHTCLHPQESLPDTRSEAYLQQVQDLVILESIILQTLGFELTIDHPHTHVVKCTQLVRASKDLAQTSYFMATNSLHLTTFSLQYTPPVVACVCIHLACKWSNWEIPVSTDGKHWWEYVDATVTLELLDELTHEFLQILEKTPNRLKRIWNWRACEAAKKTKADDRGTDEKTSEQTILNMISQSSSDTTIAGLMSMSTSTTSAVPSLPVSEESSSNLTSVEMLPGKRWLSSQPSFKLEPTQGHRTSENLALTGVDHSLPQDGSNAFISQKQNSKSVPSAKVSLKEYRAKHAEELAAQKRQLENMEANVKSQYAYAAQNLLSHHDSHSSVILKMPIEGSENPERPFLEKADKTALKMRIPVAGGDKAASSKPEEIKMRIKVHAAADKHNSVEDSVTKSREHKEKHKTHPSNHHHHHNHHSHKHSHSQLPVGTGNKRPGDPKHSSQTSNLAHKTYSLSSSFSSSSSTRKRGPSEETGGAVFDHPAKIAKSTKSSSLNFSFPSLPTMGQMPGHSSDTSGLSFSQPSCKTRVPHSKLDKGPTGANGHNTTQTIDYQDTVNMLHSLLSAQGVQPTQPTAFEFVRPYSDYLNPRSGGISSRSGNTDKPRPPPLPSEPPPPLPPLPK
In short: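 CDK9/cyclin T1 phosphorylation of a ULight-MBP peptide was run for 1 h at room temperature in pH 7.5 HEPES buffer with MgCl2, EGTA, DTT and Tween-20. It was followed by 1 h with Eu-anti-phospho-MBP antibody (4 nM) in EDTA detection buffer. TR-FRET loss gave IC50 from 8-point, 1:3 sigmoidal dose-response curves.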

[1] = CDK7/CycH/Mat1, 25 μM ATP final, class ranges, read-out: CDK7: IC50 [nM] for CDK7 inhibition

Compound	IC50 (CDK2/CycA) [nM]	IC50 (CDK7/CycH/Mat1; [1]) [nM]	IC50 (CDK9/Cyclin T1) [nM]	Selectivity CDK7 over CDK2 (CDK2/CycA; Table 6) [fold]	IC50 (CDK7/CycH/Mat1; Table 6, read-out: IC50 CDK7) [nM]	Selectivity CDK7 over CDK9 (CDK9/Cyclin T1; Table 6) [fold]
Cc1ccc(CNc2nc(O[C@@H]3CCCNC3)nc3c(C(C)C)cnn23)c(OCC(C)C)c1 [(VII-115), (R)-N-(2-isobutoxy-4-methylbenzyl)-8-isopropyl-2-(piperidin-3-yloxy)pyrazolo[1,5-a][1,3,5]triazin-4-amine]	> 2500	> 25	> 2500			
CC(C)c1cnn2c(NCc3ccccc3-n3cccn3)nc(OC3CCNCC3)nc12 [(VII-01), N-(2-(1H-pyrazol-1-yl)benzyl)-8-isopropyl-2-(piperidin-4-yloxy) pyrazolo[1,5-a][1,3,5]triazin-4-amine]	50 to 500	< 5	> 2500			
CC(C)c1cnn2c(NCc3ccccc3C(N)=O)nc(O[C@@H]3CCCNC3)nc12 [(VII-096), (R)-2-(((8-isopropyl-2-(piperidin-3-yloxy)pyrazolo[1,5-a][1,3,5]triazin-4-yl)amino)methyl)benzamide]	50 to 500	< 5	500 to 2500			
CC(C)c1cnn2c(NCc3ccccc3-n3ccnc3)nc(OC3CCN(C)CC3)nc12 [(VII-59), N-(2-(1H-imidazol-1-yl)benzyl)-8-isopropyl-2-((1-methylpiperidin-4-yl)oxy)pyrazolo[1,5-a][1,3,5]triazin-4-amine]		< 5	> 2500	3926	< 5	9140
CC(C)c1cnn2c(NCc3ccccc3-n3cccn3)nc(N3CCC4(CCCN4)CC3)nc12 [(VIII-11), N-(2-(1H-pyrazol-1-yl)benzyl)-8-isopropyl-2-(1,8-diazaspiro[4.5]decan-8-yl)pyrazolo[1,5-a][1,3,5]triazin-4-amine]	500 to 2500	< 5	> 2500			
CC(C)c1cnn2c(NCc3ccccc3-n3cccn3)nc(NCCCN3CCOCC3)nc12 [(VIII-044), N4-(2-(1H-pyrazol-1-yl)benzyl)-8-isopropyl-N2-(3-morpholinopropyl)pyrazolo[1,5-a][1,3,5]triazine-2,4-diamine]	> 2500	> 25	> 2500			
CC(C)c1cnn2c(NCc3cccc4cccnc34)nc(O[C@@H]3CCCNC3)nc12 [(VII-35), (R)-8-isopropyl-2-(piperidin-3-yloxy)-N-(quinolin-8-ylmethyl)pyrazolo[1,5-a][1,3,5]triazin-4-amine]	50 to 500	< 5	50 to 500			
CC(C)c1cnn2c(NCc3ccccc3F)nc(OC3CCN(C)CC3)nc12 [(VII-56), N-(2-fluorobenzyl)-8-isopropyl-2-((1-methylpiperidin-4-yl)oxy)pyrazolo[1,5-a][1,3,5]triazin-4-amine]	500 to 2500	5 to 10	50 to 500			
CC(C)c1cnn2c(NCc3ccccc3-n3cccn3)nc(SC3CCNCC3)nc12 [(X-9), N-(2-(1H-pyrazol-1-yl)benzyl)-8-isopropyl-2-(piperidin-4-ylthio)pyrazolo[1,5-a][1,3,5]triazin-4-amine]	> 2500	10 to 25	> 2500			
CCNC(=O)Nc1ccccc1CNc1nc(O[C@@H]2CCCNC2)nc2c(C(C)C)cnn12 [(VII-114), (R)-1-ethyl-3-(2-(((8-isopropyl-2-(piperidin-3-yloxy)pyrazolo[1,5-a][1,3,5]triazin-4-yl)amino)methyl)phenyl)urea]	> 2500	< 5	> 2500			
CC(C)c1cnn2c(NCc3ccccc3[S+]([O-])C3CCCC3)nc(O[C@@H]3CCCNC3)nc12 (stereo partly drawn) [(VII-153), N-(2-(cyclopentylsulfinyl)benzyl)-8-isopropyl-2-((R)-piperidin-3-yloxy)pyrazolo[1,5-a][1,3,5]triazin-4-amine]	> 2500	10 to 25	> 2500			
CC(C)c1cnn2c(NCc3ccccc3-n3cccn3)nc(N3CCC(N(C)C)CC3)nc12 [(VIII-24), N-(2-(1H-pyrazol-1-yl)benzyl)-2-(4-(dimethylamino)piperidin-1-yl)-8-isopropylpyrazolo[1,5-a][1,3,5]triazin-4-amine]	50 to 500	< 5	500 to 2500			
